These results are taken from publication PMC5259734, “Identification of Key Residues for Urate Specific Transport in Human Glucose Transporter 9 (hSLC2A9)” (Scientific Reports, 2017).

Holding throughout (assay type): cell-based
For assay [1], the target named is T1, hSLC2A9b (human glucose transporter 9) (Homo sapiens, UniProt Q9NRM0).
T1 construct: gene SLC2A9; hSLC2A9b isoform (shorter N-terminus), WT
T1 sequence (Q9NRM0 1-511 isoform Q9NRM0-2 limits assumed): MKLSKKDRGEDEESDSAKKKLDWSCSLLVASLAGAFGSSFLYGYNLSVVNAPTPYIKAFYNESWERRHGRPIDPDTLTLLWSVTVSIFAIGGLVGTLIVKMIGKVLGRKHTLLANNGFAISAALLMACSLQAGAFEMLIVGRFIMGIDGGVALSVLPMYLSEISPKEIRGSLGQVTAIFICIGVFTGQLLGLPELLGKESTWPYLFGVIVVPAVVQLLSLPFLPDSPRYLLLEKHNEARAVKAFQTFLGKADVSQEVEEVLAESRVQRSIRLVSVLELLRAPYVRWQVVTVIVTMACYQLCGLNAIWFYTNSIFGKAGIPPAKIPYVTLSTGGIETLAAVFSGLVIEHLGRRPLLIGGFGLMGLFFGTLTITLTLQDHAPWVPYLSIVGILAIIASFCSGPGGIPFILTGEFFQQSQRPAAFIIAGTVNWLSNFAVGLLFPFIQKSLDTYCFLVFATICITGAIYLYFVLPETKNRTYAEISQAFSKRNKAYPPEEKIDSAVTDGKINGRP
The experiment in a line: […] urate flux kinetics and TEVC in Xenopus oocytes.

Assay [2] deals with T1, hSLC2A9b (human glucose transporter 9). The experiment in a line: […] fructose uptake in Xenopus oocytes.
Assay [3] shares this target. The experiment in a line: TEVC inhibition of urate-induced current and […] urate flux in Xenopus oocytes.

As to `O=c1[nH]c(=O)c2[nH]c(=O)[nH]c2[nH]1` [urate], the “14C urate flux kinetics and TEVC in Xenopus oocytes” value in assay [1] is “both WT hSLC2A9b and its cysteine mutants exhibited Michaelis-Menten type kinetics for urate transport”.

Consider `OC[C@H]1OC(O)(CO)[C@@H](O)[C@@H]1O` (stereo partly drawn) [fructose], for which, in assay [2], the “14C fructose uptake in Xenopus oocytes” value was “all mutants transported fructose similarly as WT hSLC2A9b”.

Consider `O=S(=O)(O)c1cc[c]([Hg][Cl])cc1` [pCMBS], for which half-maximal inhibition in assay [3] (IC50) was put at 52.5 µM.
